Legend:
[1] = target: T1, CYP2D6 (Homo sapiens, UniProt P10635); assay: CYP inhibition assay in human liver microsome, CYP2D6; assay type: in vitro ADME; settings: percentage inhibition, substrate Dextromethorphan 5 μM, <0: not or weak inhibitor
T1 construct: tissue BD-Gentest 452117; host or cells: human liver microsomes
Experimental: (§1) This is a high throughput screening assay used for assessment of reversible inhibition of CYP2C9, CYP2D6, and CYP3A4 activity of test compounds in human liver microsome (HLM) in early discovery stage.
(§2) Procedure 10 mM DMSO stock solutions of test compounds were diluted in DMSO to generate 2 mM intermediate stock solution. 250 nL of intermediate stock solution were transferred in duplicate into 3 separate 384 well microtitre plates (assay-ready plates). A mixture of HLM and each substrate was made up. 45 μL of HLM substrate mix was then transferred to each well of an assay ready plate and mixed. The negative (solvent) and positive controls (standard inhibitor for each CYP) were included in each assay ready plate. The assay ready plate was warmed to 37° C. in an incubator over 10 minutes. 5 μL pre-warmed NADPH regenerating system was added to each incubation well to start the reaction. Final incubation volume was 50 μL. The assay plate then was placed back in the 37° C. incubator. After incubation (10 minutes for CYP2D6) for 5 minutes, incubates were quenched by addition of 50 μL 100% acetonitrile containing internal standards (400 ng/mL 13C6-4′-OH-Diclofenac, 20 ng/mL D3-Dextrorphan and 20 ng/mL D4-1′OH-Midazolam). The supernatants were collected for RapidFire/MS/MS analysis.
(§3) RapidFire online solid phase extraction/sample injection system (Agilent) coupled with API4000 triple quadrupole mass spectrometer (AB Sciex) were used for sample analysis. The mobile phase composed of acetonitrile and water supplemented with 0.1% formic acid. A C4 solid phase extraction cartridge is used for sample separation. MS detection is achieved in positive ion MRM mode.
(§4) Data analysis Peak areas for substrate, metabolite and internal standard are determined using the RapidFire integrator software (version 3.6.12009.12296). Peak area ratios (PAR) of metabolite and internal standard (stable-labelled metabolite) are then calculated. The measurement window for each experiment is then defined: PAR (0% activity)=average PAR for all incubations containing concentrated inhibitor; Par (100% activity)=average PAR for all incubations containing no inhibitor (DMSO controls); % Activity (test inhibitor)=[PAR (test inhibitor)-PAR (0% activity)]/[PAR (100% activity)-PAR (0% activity)]; % Inhibition (test inhibitor)=100-% Activity (test inhibitor).

[2] = target: T2, hTLR9 (Homo sapiens, UniProt Q9NR96); assay: HEK293-Blue-hTLR-9 cells assay; assay type: cell-based; settings: HEK293-Blue-hTLR9 cells, ODN2006 stimulation, 20 hrs, SEAP reporter; read-out: HEK/hTLR9 IC50
T2 sequence (Q9NR96 26-1032): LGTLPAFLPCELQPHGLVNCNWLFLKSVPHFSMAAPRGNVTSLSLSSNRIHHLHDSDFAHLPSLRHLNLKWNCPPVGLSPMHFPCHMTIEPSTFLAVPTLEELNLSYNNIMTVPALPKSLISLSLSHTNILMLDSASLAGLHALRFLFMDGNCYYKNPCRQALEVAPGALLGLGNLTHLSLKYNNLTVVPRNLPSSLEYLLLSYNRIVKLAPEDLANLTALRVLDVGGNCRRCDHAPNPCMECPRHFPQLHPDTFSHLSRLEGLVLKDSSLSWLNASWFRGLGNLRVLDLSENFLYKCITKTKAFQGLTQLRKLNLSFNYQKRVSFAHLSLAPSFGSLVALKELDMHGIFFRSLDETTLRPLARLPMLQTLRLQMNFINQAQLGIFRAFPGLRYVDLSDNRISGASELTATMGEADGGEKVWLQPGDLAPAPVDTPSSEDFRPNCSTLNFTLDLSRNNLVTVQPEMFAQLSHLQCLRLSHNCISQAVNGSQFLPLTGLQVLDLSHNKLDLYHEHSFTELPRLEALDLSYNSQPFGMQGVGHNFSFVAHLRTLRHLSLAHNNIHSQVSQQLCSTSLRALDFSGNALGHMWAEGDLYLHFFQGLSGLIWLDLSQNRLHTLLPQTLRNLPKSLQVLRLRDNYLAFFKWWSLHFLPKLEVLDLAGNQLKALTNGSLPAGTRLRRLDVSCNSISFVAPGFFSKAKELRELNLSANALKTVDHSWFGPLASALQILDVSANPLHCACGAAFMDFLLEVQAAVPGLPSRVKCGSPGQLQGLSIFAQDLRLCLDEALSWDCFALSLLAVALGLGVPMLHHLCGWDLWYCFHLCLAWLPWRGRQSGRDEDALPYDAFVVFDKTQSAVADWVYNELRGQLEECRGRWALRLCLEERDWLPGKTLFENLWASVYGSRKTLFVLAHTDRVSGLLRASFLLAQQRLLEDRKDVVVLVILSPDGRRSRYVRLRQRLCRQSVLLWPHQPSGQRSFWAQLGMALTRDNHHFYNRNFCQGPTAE
Description: HEK293-Blue-hTLR-9 cells assay: A stable HEK293-Blue-hTLR-9 cell line was purchased from InvivoGen (Cat. #: hkb-htlr9, San Diego, California, USA). These cells were originally designed for studying the stimulation of human TLR9 by monitoring the activation of NF-κB. A SEAP (secreted embryonic alkaline phosphatase) reporter gene was placed under the control of the IFN-β minimal promoter fused to five NF-κB and AP-1-binding sites. The SEAP was induced by activating NF-κB and AP-1 via stimulating HEK-Blue hTLR9 cells with TLR9 ligands. Therefore the reporter expression was declined by TLR9 antagonist under the stimulation of a ligand, such as ODN2006 (Cat. #: tlrl-2006-1, Invivogen, San Diego, California, USA), for incubation of 20 hrs. The cell culture supernatant SEAP reporter activity was determined using QUANTI-Blue™ kit (Cat. #: rep-qb1, Invivogen, San Diego, California, USA) at a wavelength of 640 nm, a detection medium that turns purple or blue in the presence of alkaline phosphatase.
HEK293-Blue-hTLR9 cells were incubated at a density of 250,000˜450,000 cells/mL in a volume of 170 μL in a 96-well plate in Dulbecco's Modified Eagle's medium (DMEM) containing 4.5 g/L glucose, 50 U/mL penicillin, […], 2 mM L-glutamine, 10% (v/v) heat-inactivated fetal bovine serum with addition of 20 μL test compound in a serial dilution in the presence of final DMSO at 1% and 10 μL of 20 uM ODN2006 in above DMEM, perform incubation under 37° C. in a CO2 incubator for 20 hrs. Then 20 μL of the supernatant from each well was incubated with 180 μL Quanti-blue substrate solution at 37° C. for 2 h and the absorbance was read at 620-655 nm using a spectrophotometer. The signaling pathway that TLR9 activation leads to downstream NF-κB activation has been widely accepted, and therefore similar reporter assay was modified for evaluating TLR9 antagonist.

[3] = target: T3, CYP2C9 (Homo sapiens, UniProt P11712); assay: CYP inhibition assay in human liver microsome, CYP2C9; assay type: in vitro ADME; settings: percentage inhibition, substrate Diclofenac 5 μM, <0: not or weak inhibitor
T3 construct: tissue BD-Gentest 452117; host or cells: human liver microsomes
T3 sequence (P11712 whole entry): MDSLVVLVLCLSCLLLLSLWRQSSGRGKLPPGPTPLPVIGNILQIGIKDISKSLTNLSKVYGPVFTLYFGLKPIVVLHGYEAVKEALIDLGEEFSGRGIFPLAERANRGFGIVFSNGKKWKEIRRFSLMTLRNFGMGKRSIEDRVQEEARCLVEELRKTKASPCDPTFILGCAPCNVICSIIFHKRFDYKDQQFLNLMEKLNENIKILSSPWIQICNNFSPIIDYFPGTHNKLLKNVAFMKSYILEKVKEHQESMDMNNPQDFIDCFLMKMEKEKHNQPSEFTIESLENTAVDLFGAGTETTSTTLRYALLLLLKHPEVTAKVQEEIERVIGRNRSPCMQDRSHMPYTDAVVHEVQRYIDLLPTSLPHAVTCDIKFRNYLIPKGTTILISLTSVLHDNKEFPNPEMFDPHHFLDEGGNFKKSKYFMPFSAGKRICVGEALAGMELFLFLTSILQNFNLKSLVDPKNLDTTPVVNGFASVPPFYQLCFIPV
Experimental: as §1, §2, §3, §4

T1 sequence (P10635 whole entry): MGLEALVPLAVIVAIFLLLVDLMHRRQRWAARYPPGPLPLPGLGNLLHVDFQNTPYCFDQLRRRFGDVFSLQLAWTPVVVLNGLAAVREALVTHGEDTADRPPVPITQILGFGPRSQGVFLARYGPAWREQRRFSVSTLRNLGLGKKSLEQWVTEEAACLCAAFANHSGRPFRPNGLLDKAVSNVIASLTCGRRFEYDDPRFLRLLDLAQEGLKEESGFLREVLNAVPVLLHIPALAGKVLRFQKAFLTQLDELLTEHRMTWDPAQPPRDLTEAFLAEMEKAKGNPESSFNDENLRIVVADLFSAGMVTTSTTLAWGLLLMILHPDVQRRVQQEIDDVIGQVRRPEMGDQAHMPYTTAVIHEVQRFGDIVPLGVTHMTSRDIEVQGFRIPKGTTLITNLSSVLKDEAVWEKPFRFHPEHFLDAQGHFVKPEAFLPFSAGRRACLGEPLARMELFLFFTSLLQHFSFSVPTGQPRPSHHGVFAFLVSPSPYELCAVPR

| Compound | CYP (%) 2D6 [1] [%] | IC50 [2] [nM] | CYP (%) 2C9 [3] [%] |
| --- | --- | --- | --- |
| [2H]c1ccc2c(N3C[C@H](CN4CC5(C4)OCc4cc(N6CC(C)(N)C6)cnc45)O[C@H](C)C3)ccc(C#N)c2n1 [Example 21, 5-[(2S,6R)-2-[[3-(3-amino-3-methyl-azetidin-1-yl)spiro[5H-furo[3,4-b]pyridine-7,3′-azetidine]-1′-yl]methyl]-6-methyl-morpholin-4-yl]-2-deuterio-quinoline-8-carbonitrile] | 5 | 55 | 4.5 |
| C[C@@H]1CN(c2ccc(C#N)n3ncc(F)c23)C[C@H](CN2CC3(C2)OCc2cc(N4CC(C)(N)C4)ncc23)O1 [Example 24, 4-[(2S,6R)-2-[[6-(3-amino-3-methyl-azetidin-1-yl)spiro[1H-furo[3,4-c]pyridine-3,3′-azetidine]-1′-yl]methyl]-6-methyl-morpholin-4-yl]-3-fluoro-pyrazolo[1,5-a]pyridine-7-carbonitrile] | 3.5 | 86 | 21 |
| C[C@@H]1CN(c2ccc(C#N)n3ncc(F)c23)C[C@H](CN2CC3(C2)OCc2cc(N4C[C@H](N)[C@@H](O)C4)ccc23)O1 [Example 10, 4-[(2S,6R)-2-[[6-[(3S,4S)-3-amino-4-hydroxy-pyrrolidin-1-yl]spiro[1H-isobenzofuran-3,3′-azetidine]-1′-yl]methyl]-6-methyl-morpholin-4-yl]-3-fluoro-pyrazolo[1,5-a]pyridine-7-carbonitrile] |  | 61 |  |
| C[C@@H]1CN(c2ccc(C#N)n3nccc23)C[C@H](CN2CC3(C2)OCc2cc(N4CC5(CNCCO5)C4)ccc23)O1 [Example 7, 4-[(2R,6S)-2-methyl-6-[[6-(5-oxa-2,8-diazaspiro[3.5]nonan-2-yl)spiro[1H-isobenzofuran-3,3′-azetidine]-1′-yl]methyl]morpholin-4-yl]pyrazolo[1,5-a]pyridine-7-carbonitrile] | −2 | 68 | 0 |

Stronger by IC50 [2], values ahead:

| CYP (%) 2D6 [1] [%] | IC50 [2] [nM] | CYP (%) 2C9 [3] [%] | Compound |
| --- | --- | --- | --- |
|  | 45 |  | C[C@@H]1CN(c2ccc(C#N)n3ncc(F)c23)C[C@H](CN2CC3(C2)OCc2cc(N4CC5(CN(C)C5)C4)ccc23)O1 [Example 2, 3-fluoro-4-[(2R,6S)-2-methyl-6-[[6-(6-methyl-2,6-diazaspiro[3.3]heptan-2-yl)spiro[1H-isobenzofuran-3,3′-azetidine]-1′-yl]methyl]morpholin-4-yl]pyrazolo[1,5-a]pyridine-7-carbonitrile] |
| 18.5 | 32 | 3.5 | [2H]c1ccc2c(N3C[C@H](CN4CC5(C4)OCc4cc(N6C[C@H]7NCCO[C@@H]7C6)ccc45)O[C@H](C)C3)ccc(C#N)c2n1 [Example 17, 5-[(2S,6R)-2-[[6-[(4aR,7aR)-3,4,4a,5,7,7a-hexahydro-2H-pyrrolo[3,4-b][1,4]oxazin-6-yl]spiro[1H-isobenzofuran-3,3′-azetidine]-1′-yl]methyl]-6-methyl-morpholin-4-yl]-2-deuterio-quinoline-8-carbonitrile] |
| 13 | 32 | 13.5 | [2H]c1ccc2c(N3C[C@H](CN4CC5(C4)OCc4cc(N6CC(N)C6)cnc45)O[C@H](C)C3)ccc(C#N)c2n1 [Example 20, 5-[(2S,6R)-2-[[3-(3-aminoazetidin-1-yl)spiro[5H-furo[3,4-b]pyridine-7,3′-azetidine]-1′-yl]methyl]-6-methyl-morpholin-4-yl]-2-deuterio-quinoline-8-carbonitrile] |
|  | 32 |  | [2H]c1ccc2c(N3C[C@H](CN4CC5(C4)OCc4cc(N6C[C@@H](N)[C@H](OC)C6)ccc45)O[C@H](C)C3)ccc(C#N)c2n1 [Example 16, 5-[(2S,6R)-2-[[6-[(3R,4R)-3-amino-4-methoxy-pyrrolidin-1-yl]spiro[1H-isobenzofuran-3,3′-azetidine]-1′-yl]methyl]-6-methyl-morpholin-4-yl]-2-deuterio-quinoline-8-carbonitrile] |

From patent US12421252B2, “Spiro (isobenzofuranazetidine) compounds for the treatment of autoimmune disease” (Hoffmann-La Roche Inc., priority 2020, dated 2025)
